From patent US6911443B2 (Bayer Aktiengesellschaft, priority 2000, dated 2005) come the findings set out here.

Bounds are passed on as bounds.

One test deals with T1, human Syk (GST-Syk) (Homo sapiens, UniProt P43405).
T1 construct: A cDNA fragment encoding human Syk openreading frame was cloned; made in house; host or cells: Sf21 insect cells (baculovirus, transfer vector pAcG2T)
Nature of the test: Syk tyrosine kinase inhibitory assay. In kind it is biochemical. The following applies: Table 11; read-out: Activity grade. Put shortly: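 Readout: streptavidin-captured biotin-AL peptide probed with europium-4G10 anti-phosphotyrosine, time-resolved fluorescence (ex 340/em 615 nm). Reaction ran 1 h at room temperature with 30 μM ATP, 3 μM peptide, 0.65 nM Sf21-expressed GST-Syk and 0.25% DMSO, pH 8.0.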
Take `COc1cc(-c2cc3nccn3c(Nc3ccc(C(F)(F)F)cc3)n2)ccc1N1CCOCC1` [Example 12-49]: the IC50 was less than 500 nM.

`COc1cc(-c2cc3nccn3c(Nc3ccccc3S(C)(=O)=O)n2)ccc1N1CCOCC1` [Example 12-57]: the IC50 was less than 500 nM.

As for `COc1ccc(-c2cc3nccn3c(Nc3ccc(Br)cc3)n2)cc1OC` [Example 12-12], the IC50 is less than 500 nM.

For `COc1ccc(Nc2nc(-c3ccc(OC)c(OC)c3)cc3nccn23)cn1` [Example 12-4], the IC50 is less than 500 nM.

As to `COc1cc(-c2cc3nccn3c(Nc3ccccc3)n2)ccc1N1CCOCC1` [Example 12-54], the IC50 was less than 500 nM.

On to `CCSc1nc(-c2ccc(N(C)CCOC)c(OC)c2)cc2nccn12` [Example 12-50], for which the IC50 is less than 500 nM.

In the case of `CCOCCOc1ccc(-c2cc3nccn3c(Nc3ccccc3)n2)cc1OCCOCC` [Example 12-24], the IC50 was 500 to 2000 nM.

Still in this test, the particulars now being: Table 13.
On to `Clc1ccc(-c2cc3ncnn3c(Sc3ccccc3)n2)cn1` [Example 14-9], for which the Activity grade entry is recorded as “C-D”.

Still in this test, the particulars now being: Table 13; read-out: Activity grade.
`COc1ccc(-c2cc3nccn3c(SCCN(C(C)C)C(C)C)n2)cc1OC` [Example 14-19]: the IC50 lay within 500 to 2000 nM.

For the compound `COc1ccc(-c2cc3nccn3c(SCCC(C)C)n2)cc1OC` [Example 14-28], the IC50 was 500 to 2000 nM.

The same test, now with this note: Table 14; read-out: Activity grade.
`COc1ccc(-c2cc3nccn3c(Sc3ccncc3C(=O)O)n2)cc1OC` [Example 15-2]: the IC50 is less than 500 nM.

For the compound `COc1ccc(-c2cc3nccn3c(NC3CCCCC3)n2)cc1OC` [Example 15-4], the IC50 lay within 500 to 2000 nM.

Still in this test, the particulars now being: Table 15; read-out: Activity grade.
Regarding `COc1ccc(-c2cc3nccn3c(Sc3ccc(S(=O)(=O)N4CCCC4)cc3)n2)cc1OC` [Example 16-5], the IC50 is less than 500 nM.

Still in this test, the particulars now being: Table 16; read-out: Activity grade.
Regarding `CCSc1nc(-c2ccc(NCCCN3CCOCC3)c(OC)c2)cc2nccn12` [Example 17-12], the IC50 is less than 500 nM.

Staying with this test, now noted: Table 17; IC50 classes; read-out: Activity grade.
`COc1ccc(-c2cc3nccn3c(Nc3ccc(N(C)C)cc3C(N)=O)n2)cc1OC` [Example 32]: the IC50 is less than 500 nM.

In the case of `COc1ccc(-c2cc3nccn3c(Nc3cc(N)ccc3C(N)=O)n2)cc1OC` [Example 11], the IC50 was less than 500 nM.

For `COc1ccc(-c2cc3nccn3c(Sc3ccc(CCC(N)=O)cc3)n2)cc1OC` [Example 20], the IC50 was less than 500 nM.

For the compound `COc1ccc(-c2cc3nccn3c(Nc3ccccc3-c3nnn[nH]3)n2)cc1OC` [Example 31], the IC50 was less than 500 nM.

As for `COc1ccc(-c2cc3nccn3c(Sc3ccc(CCC(=O)N(C)C)cc3)n2)cc1OC` [compound 17], the IC50 is less than 500 nM.

As to `CCN(CC)CCNc1ccc(C(N)=O)c(Nc2nc(-c3ccc(OC)c(OC)c3)cc3nccn23)c1` [Example 12], the IC50 is less than 500 nM.

Still in this test, the particulars now being: in vitro; compounds as yielded by solid phase synthesis, purity about 40 to 90%.
Regarding `CCSc1nc(-c2ccc(S(=O)(=O)N3CCN(C)CC3)c(OC)c2)cc2nccn12` [Example 2-9], the “Activity grade (IC50 class)” value was “C-D”.

With `COc1cc(-c2cc3nccn3c(Nc3ccccc3S(N)(=O)=O)n2)ccc1OCCN1CCOCC1` [Example 9-97], the “Activity grade (IC50 class)” value is given as “C-D”.

The same test, now with this note: in vitro; compounds as yielded by solid phase synthesis, purity about 40 to 90%; read-out: Activity grade (IC50 class).
As to `COc1ccc(-c2cc3nccn3c(N(CCO)Cc3ccccc3)n2)cc1OC` [Example 9-29], the IC50 was less than 500 nM.

For `COc1ccc(-c2cc3nccn3c(Sc3ccc(/C=C/C(=O)O)c(C)c3)n2)cc1OC` [Example 13-22], the IC50 was less than 500 nM.

Take `COc1ccc(-c2cc3nccn3c(Nc3cc(N)ccc3C(N)=O)n2)cc1OC` [Example 11]: the IC50 was less than 500 nM.

As for `COc1ccc(Nc2nc(-c3ccc(OCCN4CCOCC4)c(OC)c3)cc3nccn23)c(C(N)=O)c1` [Example 9-95], the IC50 was less than 500 nM.

With `COc1ccc(-c2cc3nccn3c(Nc3cccc(C(=N)N)c3)n2)cc1OC` [Example 11-66], the IC50 is less than 500 nM.

For the compound `COc1ccc(-c2cc3nccn3c(Nc3ccc(C(=O)O)cc3)n2)cc1OC` [Example 11-28], the IC50 was less than 500 nM.

Consider `COc1ccc(-c2cc3nccn3c(Nc3ccc(F)cc3F)n2)cc1OC` [Example 11-54], for which the IC50 was less than 500 nM.

Turning to `CCOCCOc1cc(-c2cc3nccn3c(SCC)n2)ccc1OC` [Example 4-6], the IC50 was less than 500 nM.

As for `CCSc1nc(-c2ccc(OC3CCCCC3)c(OC)c2)cc2nccn12` [Example 3-6], the IC50 is 500 to 2000 nM.

In the case of `COc1ccc(-c2cc3nccn3c(Nc3ccc(F)cc3C(=O)O)n2)cc1OC` [Example 11-41], the IC50 is less than 500 nM.

Regarding `COc1ccc(-c2cc3nccn3c(Nc3ccccc3S(N)(=O)=O)n2)cc1OC` [Example 11-113], the IC50 was less than 500 nM.

`COc1ccc(-c2cc3nccn3c(Nc3ccc(Br)cc3C(N)=O)n2)cc1OC` [Example 11-97]: the IC50 is less than 500 nM.

Consider `COc1ccc(-c2cc3nccn3c(N(C)c3ccc(OC(F)(F)F)cc3)n2)cc1OC` [Example 11-46], for which the IC50 was 500 to 2000 nM.

Regarding `COc1ccc(-c2cc3ncnn3c(Nc3ccc(CCC(=O)O)cc3C(N)=O)n2)cc1OC` [Example 11-101], the IC50 is less than 500 nM.

For the compound `COc1ccc(-c2cc3nccn3c(Nc3cc(F)c(F)cc3F)n2)cc1OC` [Example 11-40], the IC50 was less than 500 nM.

In the case of `CCOC(=O)CSc1nc(-c2ccc(OC)c(OC)c2)cc2nccn12` [Example 9-89], the IC50 was in the range of 500 to 2000 nM.

As to `COc1ccc(-c2cc3nccn3c(Sc3ccc(CCC(=O)O)cc3)n2)cc1OC(C)=O` [Example 13-25], the IC50 was less than 500 nM.

With `CCSc1nc(-c2ccc(OC)c(S(=O)(=O)N3CCN(CCO)CC3)c2)cc2nccn12` [Example 2-3], the IC50 was less than 500 nM.

`COc1ccc(-c2cc3nccn3c(Nc3ccc(CCC(=O)O)cc3C(N)=O)n2)cc1OC` [Example 11-104]: the IC50 was less than 500 nM.

As to `COc1ccc(-c2cc3nccn3c(Nc3ccc(C(F)(F)F)cc3)n2)cc1OC` [Example 11-71], the IC50 was less than 500 nM.

Turning to `COc1ccc(-c2cc3nccn3c(NCCc3c[nH]c4ccccc34)n2)cc1OC` [Example 9-83], the IC50 is less than 500 nM.

Turning to `COc1ccc(-c2cc3nccn3c(Sc3ccccc3CO)n2)cc1OC` [Example 13-7], the IC50 is less than 500 nM.

Consider `COc1ccc(-c2cc3nccn3c(Nc3cccc(C)c3)n2)cc1OC` [Example 11-7], for which the IC50 is less than 500 nM.

For the compound `CCSc1nc(-c2ccc(OCCCN3CCN(C)CC3)c(OC)c2)cc2nccn12` [Example 5-8], the IC50 was less than 500 nM.

For `COc1ccc(-c2cc3ncnn3c(Nc3ccc(/C=C/C(=O)O)cc3)n2)cc1OC` [Example 9-19], the IC50 is less than 500 nM.

Consider `COc1ccc(-c2cc3nccn3c(Nc3ccc(SCC(=O)O)cc3)n2)cc1OC` [Example 11-20], for which the IC50 was less than 500 nM.

For `COc1ccc(-c2cc3nccn3c(Nc3cccc4c3C(=O)NC4=O)n2)cc1OC` [Example 11-3], the IC50 is less than 500 nM.

For the compound `CCN(CC)CCNc1ccc(C(N)=O)c(Nc2nc(-c3ccc(OC)c(OC)c3)cc3nccn23)c1` [Example 12], the IC50 is less than 500 nM.

Consider `COC(=O)CCc1ccc(Nc2nc(-c3ccc(OC)c(OC)c3)cc3nccn23)cc1` [Example 9-24], for which the IC50 was less than 500 nM.

As to `COc1ccc(-c2cc3nccn3c(Nc3ccc(S(=O)(=O)NC(=N)N)cc3)n2)cc1OC` [Example 11-110], the IC50 is less than 500 nM.

Turning to `COc1ccc(-c2cc3nccn3c(Sc3cccc(C(=O)O)c3)n2)cc1OC` [Example 9-93], the IC50 lay in the range of 500 to 2000 nM.

`COc1ccc(-c2cc3nccn3c(Nc3ccc(NCCCN4CCOCC4)cc3)n2)cc1OC` [Example 11-90]: the IC50 was less than 500 nM.

With `COc1ccc(-c2cc3nccn3c(N3CC[C@H](N(C)C)C3)n2)cc1OC` [Example 9-78], the IC50 was in the range of 2000 to 10000 nM.

`COc1ccc(-c2cc3nccn3c(Nc3ccc(Br)cc3F)n2)cc1OC` [Example 11-87]: the IC50 was less than 500 nM.

Take `COc1ccc(-c2cc3nccn3c(N(C)c3cccc(Cl)c3)n2)cc1OC` [Example 11-50]: the IC50 is less than 500 nM.

Take `COc1ccccc1Nc1nc(-c2ccc(OC)c(OC)c2)cc2nccn12` [Example 11-8]: the IC50 was less than 500 nM.

As for `COc1ccc(-c2cc3nccn3c(Nc3ccccc3)n2)cc1OC` [Example 11-16], the IC50 is less than 500 nM.

Take `CCOC(=O)N1CCN(c2nc(-c3ccc(OC)c(OC)c3)cc3nccn23)CC1` [Example 9-72]: the IC50 was 2000 to 10000 nM.

On to `COc1ccc(-c2cc3nccn3c(SCC(C)C(=O)O)n2)cc1OC` (stereo not shown) [Example 9-91], for which the IC50 lay within 500 to 2000 nM.

For `CCSc1nc(-c2ccc(C)c(S(=O)(=O)N3CCN(CCO)CC3)c2)cc2nccn12` [Example 2-1], the IC50 lay in the range of 500 to 2000 nM.

In the case of `CCSc1nc(-c2ccc(C)c(S(=O)(=O)NCCO)c2)cc2nccn12` [Example 2-5], the IC50 is less than 500 nM.

Consider `COc1ccc(-c2cc3nccn3c(N[C@@H](CO)Cc3ccccc3)n2)cc1OC` [Example 9-5], for which the IC50 lay in the range of 500 to 2000 nM.

Take `COc1ccc(-c2cc3nccn3c(Nc3ccccc3F)n2)cc1OC` [Example 11-53]: the IC50 was less than 500 nM.

On to `COc1ccc(-c2cc3nccn3c(Nc3ccc(/C=C/C(=O)OC(C)(C)C)cc3C(N)=O)n2)cc1OC` [Example 11-14], for which the IC50 was less than 500 nM.

Turning to `CCSc1nc(-c2ccc(OC)c(OCCCN3CCCCC3)c2)cc2nccn12` [Example 5-6], the IC50 is 500 to 2000 nM.

For the compound `COc1ccc(-c2cc3nccn3c(Sc3ccc(CCC(=O)O)cc3OC)n2)cc1OC` [Example 9-94], the IC50 is less than 500 nM.

Turning to `COc1ccc(-c2cc3nccn3c(Nc3cc(F)cc(F)c3)n2)cc1OC` [Example 11-39], the IC50 was less than 500 nM.

Regarding `COc1ccc(Nc2nc(-c3ccc(OC)c(OC)c3)cc3nccn23)cc1O` [Example 11-92], the IC50 is less than 500 nM.

`CCSc1nc(-c2ccc(OC(C)=O)c(OC)c2)cc2nccn12` [Example 3-7]: the IC50 was less than 500 nM.

On to `COc1ccc(-c2cc3nccn3c(Nc3ccc(S(C)(=O)=O)cc3)n2)cc1OC` [Example 11-127], for which the IC50 is less than 500 nM.

For `CCSc1nc(-c2ccc(OC)c(S(=O)(=O)NCCO)c2)cc2nccn12` [Example 2-2], the IC50 is less than 500 nM.
